Data: BindingDB's records for PubMed 8100350 (University of Pennsylvania, 1993)
Where a SMILES comes first, the peptide text is derived from it. Bridges are numbered along the chain shown (N, C = ends). [ ]: non-standard residue; d: D form. The star is where a group is joined. ξ: configuration not given here. Phe(4-NO2) = N[C@@H](Cc1ccc([N+](=O)[O-])cc1)C(=O)O; NH(1-naphthylmethyl) = c1ccc2c(CN*)cccc2c1; Phe(4-Cl) = N[C@@H](Cc1ccc(Cl)cc1)C(=O)O; 2Nal = N[C@@H](Cc1ccc2ccccc2c1)C(=O)O; d1Nal = N[C@H](Cc1cccc2ccccc12)C(=O)O; d2Nal = N[C@H](Cc1ccc2ccccc2c1)C(=O)O; dNMeF = CN[C@H](Cc1ccccc1)C(=O)O; dThr(3ξ) = CC(O)[C@@H](N)C(=O)O; Thr(3ξ) = CC(O)[C@H](N)C(=O)O; NMeA = CN[C@@H](C)C(=O)O; dNMeA = CN[C@H](C)C(=O)O; ξF = NC(Cc1ccccc1)C(=O)O; Abu = CC[C@H](N)C(=O)O; X2 = CC(O)[C@H](CO)N*; Aoc = NCCCCCCCC(=O)O; Ahx = NCCCCCC(=O)O; Bn = c1ccc(C*)cc1; ξC = NC(CS)C(=O)O

What was measured:
[1] = biological target: Somatostatin receptor type 3 (Mus musculus, UniProt P30935)
[2] = biological target: Somatostatin receptor type 1 (Homo sapiens, UniProt P30872)
[3] = biological target: Somatostatin receptor type 2 (Mus musculus, UniProt P30875)
Sequence of Somatostatin receptor type 2 (P30875 whole entry): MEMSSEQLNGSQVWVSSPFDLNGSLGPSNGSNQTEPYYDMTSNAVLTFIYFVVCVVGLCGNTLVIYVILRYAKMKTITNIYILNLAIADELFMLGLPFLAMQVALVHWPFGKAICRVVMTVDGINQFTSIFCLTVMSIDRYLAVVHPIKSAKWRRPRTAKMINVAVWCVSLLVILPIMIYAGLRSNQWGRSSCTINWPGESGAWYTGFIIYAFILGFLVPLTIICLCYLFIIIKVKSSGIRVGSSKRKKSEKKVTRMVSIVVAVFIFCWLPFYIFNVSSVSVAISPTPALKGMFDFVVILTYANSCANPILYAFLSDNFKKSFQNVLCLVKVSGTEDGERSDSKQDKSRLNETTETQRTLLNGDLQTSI

Sequence of Somatostatin receptor type 1 (P30872 whole entry): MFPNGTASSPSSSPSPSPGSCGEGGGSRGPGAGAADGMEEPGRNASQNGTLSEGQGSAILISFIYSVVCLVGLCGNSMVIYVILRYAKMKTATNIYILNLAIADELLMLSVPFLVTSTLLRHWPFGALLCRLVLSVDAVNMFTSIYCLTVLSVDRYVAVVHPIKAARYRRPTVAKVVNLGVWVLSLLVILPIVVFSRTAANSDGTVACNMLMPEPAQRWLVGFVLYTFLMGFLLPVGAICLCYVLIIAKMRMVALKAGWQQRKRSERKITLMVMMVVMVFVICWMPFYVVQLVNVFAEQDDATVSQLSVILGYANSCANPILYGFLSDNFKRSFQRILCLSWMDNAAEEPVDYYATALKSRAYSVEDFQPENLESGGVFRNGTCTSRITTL
Sequence of Somatostatin receptor type 3 (P30935 whole entry): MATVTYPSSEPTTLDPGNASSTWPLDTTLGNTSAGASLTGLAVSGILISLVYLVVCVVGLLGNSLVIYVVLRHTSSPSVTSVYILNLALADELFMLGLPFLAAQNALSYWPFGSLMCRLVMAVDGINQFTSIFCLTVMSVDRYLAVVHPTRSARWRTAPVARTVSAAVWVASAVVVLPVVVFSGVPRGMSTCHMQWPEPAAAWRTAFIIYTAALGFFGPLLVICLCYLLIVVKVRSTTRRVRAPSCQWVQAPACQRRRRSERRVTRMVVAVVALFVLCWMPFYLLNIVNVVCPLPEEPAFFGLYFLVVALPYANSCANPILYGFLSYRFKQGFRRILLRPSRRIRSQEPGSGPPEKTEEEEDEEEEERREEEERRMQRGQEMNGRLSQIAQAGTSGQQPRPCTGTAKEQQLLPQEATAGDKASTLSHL

Compound	Ki [1]	Ki [2]	Ki [3]
CC(C)[C@H](NC(=O)[C@H](CCCCN)NC(=O)[C@@H](Cc1c[nH]c2ccccc12)NC(=O)[C@H](Cc1ccc(O)cc1)NC(=O)[C@H](Cc1ccc(Cl)cc1)NC(=O)[C@@H](N)Cc1ccccc1)C(=O)N[C@@H](Cc1ccccc1)C(=O)N[C@@H](Cc1ccc2ccccc2c1)C(N)=O [BIM 23063] (H-F[Phe(4-Cl)]Y[dW]KVF[2Nal]-NH2)	81 nM	1000 nM	248 nM
CC(C)[C@H](NC(=O)[C@H](CCCCN)NC(=O)[C@@H](Cc1c[nH]c2ccccc12)NC(=O)[C@H](Cc1ccc(O)cc1)NC(=O)[C@H](C)NC(=O)[C@H](N)Cc1ccccc1)C(=O)N[C@@H](C)C(=O)N[C@@H](Cc1ccc2ccccc2c1)C(N)=O [L-Alaninamide,D-phenylalanyl-L-alanyl-L-tyrosyl-D-tryptophyl-L-lysyl-L-valyl-L-alanyl-3-(2-naphthalenyl)-(9CI)] (H-[dF]AY[dW]KVA[2Nal]-NH2)	152 nM	1000 nM	6.1 nM
CC[C@H](NC(=O)[C@@H](N)Cc1ccc(Cl)cc1)C(=O)N[C@@H](Cc1ccc(O)cc1)C(=O)N[C@H](Cc1c[nH]c2ccccc12)C(=O)N[C@@H](CCCCN)C(=O)N[C@H](C(=O)N[C@@H](C)C(=O)N[C@H](Cc1ccccc1)C(N)=O)C(C)C [BIM 23067] (H-[Phe(4-Cl)][Abu]Y[dW]KVA[dF]-NH2)	123 nM		135 nM
C[C@@H](OCc1ccccc1)[C@@H]1NC(=O)[C@H](CCCCN)NC(=O)[C@@H](Cc2c[nH]c3ccccc23)NC(=O)[C@H](Cc2ccccc2)NC(=O)CCCCCCCNC1=O [c[Aoc-Phe-D-Trp-Lys-Thr(Bzl)]] (cyclo([Aoc]F[dW]KT(Bn)))	101 nM	700 nM	1000 nM
CC(O)C1NC(=O)C(CCCCN)NC(=O)C(Cc2c[nH]c3ccccc23)NC(=O)C(Cc2ccc(O)cc2)NC(=O)C(NC(=O)C(N)Cc2ccccc2)CSSCC(C(=O)NCc2cccc3ccccc23)NC1=O (centres undefined) [BIM 23060] (H-FCYWKTC-{NH(1-naphthylmethyl)}; disulfide 2-7; configuration not given here)	17.4 nM	1000 nM	0.01 nM
CC(O)[C@H](CO)NC(=O)[C@@H]1CSSCC(NC(=O)C(N)Cc2ccccc2)C(=O)N[C@H](Cc2ccccc2)C(=O)N[C@H](Cc2c[nH]c3ccccc23)C(=O)N[C@H](CCCCN)C(=O)N[C@H](C(C)O)C(=O)N1 (some centres undefined) (H-[ξF][ξC][dF][dW][dK][dThr(3ξ)]C-X2; disulfide 2-7)	3 nM		2.4 nM
CC(C)[C@H](NC(=O)[C@H](CCCCN)NC(=O)[C@@H](Cc1c[nH]c2ccccc12)NC(=O)[C@H](Cc1ccc(O)cc1)NC(=O)[C@H](Cc1ccccc1)NC(=O)[C@H](N)Cc1ccccc1)C(=O)N[C@@H](Cc1ccccc1)C(=O)N[C@H](C(N)=O)[C@@H](C)O [BIM-23058] (H-[dF]FY[dW]KVFT-NH2)	0.04 nM	1000 nM	46 nM
CC(C)[C@H](NC(=O)[C@H](CCCCN)NC(=O)[C@@H](Cc1c[nH]c2ccccc12)NC(=O)[C@H](Cc1ccc(O)cc1)NC(=O)[C@H](Cc1ccc(Cl)cc1)NC(=O)[C@@H](N)Cc1ccccc1)C(=O)N[C@@H](Cc1ccccc1)C(=O)N[C@H](C)C(N)=O [BIM 23064] (H-F[Phe(4-Cl)]Y[dW]KVF[dA]-NH2)	34 nM	1000 nM	948 nM
C[C@@H](OCc1ccccc1)[C@@H]1NC(=O)[C@H](CCCCN)NC(=O)[C@@H](Cc2c[nH]c3ccccc23)NC(=O)[C@H](Cc2ccccc2)NC(=O)CCCCCNC1=O [c[Ahx-Phe-D-Trp-Lys-Thr(Bzl)]] (cyclo([Ahx]F[dW]KT(Bn)))	73 nM	183 nM	1000 nM
CC(O)[C@H](NC(=O)[C@H](CCCCN)NC(=O)[C@@H](Cc1c[nH]c2ccccc12)NC(=O)[C@H](Cc1ccccc1)NC(=O)[C@@H](C)NC(=O)[C@@H](N)Cc1ccccc1)C(=O)N[C@@H](C)C(=O)N[C@H](C(N)=O)[C@@H](C)O (some centres undefined) [BIM 23051] (H-F[dA]F[dW]K[Thr(3ξ)]AT-NH2)	72 nM	1000 nM	836 nM
CC(C)[C@H](NC(=O)[C@H](CCCCN)NC(=O)[C@@H](Cc1c[nH]c2ccccc12)NC(=O)[C@H](Cc1ccc(O)cc1)NC(=O)[C@H](Cc1ccc([N+](=O)[O-])cc1)NC(=O)[C@H](N)Cc1ccccc1)C(=O)N[C@@H](Cc1ccccc1)C(=O)N[C@H](C(N)=O)[C@@H](C)O [BIM 23066] (H-[dF][Phe(4-NO2)]Y[dW]KVFT-NH2)	1.1 nM	1000 nM	3.1 nM
C[C@@H](O)[C@@H]1NC(=O)[C@H](Cc2ccccc2)NC(=O)[C@H]([C@@H](C)O)NC(=O)[C@H](CCCCN)NC(=O)[C@@H](Cc2c[nH]c3ccccc23)NC(=O)[C@H](Cc2ccccc2)NC(=O)[C@H](Cc2ccc(Cl)cc2)NC(=O)[C@H](CC(N)=O)NC(=O)[C@H](CCCCN)NC(=O)[C@@H](N)CSSC[C@@H](C(=O)O)NC(=O)[C@H](CO)NC1=O [EC5-21] (H-CKN[Phe(4-Cl)]F[dW]KTFTSC-OH; disulfide 1-12)	2.1 nM		0.005 nM
CC[C@@H]1NC(=O)[C@H](CCCCN)NC(=O)[C@@H](Cc2c[nH]c3ccccc23)NC(=O)[C@H](Cc2ccc(O)cc2)NC(=O)[C@H](C)N(C)C(=O)[C@H](Cc2ccccc2)NC1=O [BIM-23027] (cyclo([Abu]F[NMeA]Y[dW]K))	2.4 nM	1000 nM	0.001 nM
C[C@@H]1NC(=O)[C@@H]2CCCN2C(=O)[C@H](Cc2ccccc2)NC(=O)[C@H]([C@@H](C)O)NC(=O)[C@H](CCCCN)NC(=O)[C@@H](Cc2c[nH]c3ccccc23)NC1=O [cyclo(Pro-Ala-Trp-Lys-Thr-Phe)] (cyclo(A[dW]KTFP))	244 nM	1000 nM	356 nM
C[C@H](O)[C@H]1NC(=O)[C@H](CCCCN)NC(=O)[C@@H](Cc2c[nH]c3ccccc23)NC(=O)[C@@H](Cc2ccccc2)NC(=O)[C@@H](C)N(C)C(=O)[C@@H](Cc2ccccc2)N(C)C1=O [N-Methylcyclo(D-Ala-D-Phe-D-Trp-L-Lys-D-Thr-N-methyl-D-Phe-)] (cyclo(K[dT][dNMeF][dNMeA][dF][dW]))	18.9 nM	1000 nM	26 nM
CC(C)[C@@H]1NC(=O)[C@H](CCCCN)NC(=O)[C@@H](Cc2c[nH]c3ccccc23)NC(=O)[C@H](Cc2ccc(O)cc2)NC(=O)[C@@H](NC(=O)[C@H](N)Cc2ccc3ccccc3c2)CSSC[C@@H](C(=O)N[C@@H](Cc2ccc3ccccc3c2)C(N)=O)NC1=O [BIM 23042] (H-[d2Nal]CY[dW]KVC[2Nal]-NH2; disulfide 2-7)	207 nM	1000 nM	4.2 nM
CC(C)[C@H](NC(=O)[C@H](CCCCN)NC(=O)[C@@H](Cc1c[nH]c2ccccc12)NC(=O)[C@H](Cc1ccc(O)cc1)NC(=O)[C@H](Cc1ccccc1)NC(=O)[C@H](N)Cc1ccccc1)C(=O)N[C@@H](Cc1ccccc1)C(=O)N[C@H](Cc1cccc2ccccc12)C(N)=O [BIM 23056] (H-[dF]FY[dW]KVF[d1Nal]-NH2)	0.02 nM	1000 nM	> 10000 nM
C[C@@H](O)[C@@H]1NC(=O)[C@H](CCCCN)NC(=O)[C@@H](Cc2c[nH]c3ccccc23)NC(=O)[C@H](Cc2ccccc2)NC(=O)[C@@H]2CCCN2C(=O)[C@H](Cc2ccccc2)NC1=O (cyclo(PF[dW]KTF))	108 nM	1000 nM	8.6 nM
CC(C)[C@H](NC(=O)[C@H](CCCCN)NC(=O)[C@@H](Cc1c[nH]c2ccccc12)NC(=O)[C@H](Cc1ccc(O)cc1)NC(=O)[C@H](C)NC(=O)[C@H](N)Cc1ccccc1)C(=O)N[C@@H](C)C(=O)N[C@H](Cc1ccc2ccccc2c1)C(N)=O [D-Phe-AIa-Tyr-D-Trp-Lys-Val-Ala-D-Nal-NH2] (H-[dF]AY[dW]KVA[d2Nal]-NH2)	65 nM	146 nM	60 nM
CC(C)[C@H](NC(=O)[C@H](CCCCN)NC(=O)[C@@H](Cc1c[nH]c2ccccc12)NC(=O)[C@H](Cc1ccc(O)cc1)NC(=O)[C@H](Cc1ccccc1)NC(=O)[C@H](N)Cc1ccccc1)C(=O)N[C@@H](Cc1ccccc1)C(=O)N[C@H](Cc1ccccc1)C(N)=O [D-Phe-Phe-Tyr-D-Trp-Lys-Val-Phe-D-Phe-NH2] (H-[dF]FY[dW]KVF[dF]-NH2)	38 nM	1000 nM	> 10000 nM
CC(C)[C@@H]1NC(=O)[C@H](CCCCN)NC(=O)[C@@H](Cc2c[nH]c3ccccc23)NC(=O)[C@H](Cc2ccc(O)cc2)NC(=O)[C@@H](C)N(C)C(=O)[C@H](Cc2ccccc2)NC1=O	4.7 nM	419 nM	> 10000 nM
CC(O)C1NC(=O)C(CCCCN)NC(=O)C(Cc2c[nH]c3ccccc23)NC(=O)C(Cc2ccccc2)NC(=O)C(NC(=O)C(N)Cc2ccccc2)CSSCC(C(=O)NCc2cccc3ccccc23)NC1=O (centres undefined) [EC5-21] (H-FCFWKTC-{NH(1-naphthylmethyl)}; disulfide 2-7; configuration not given here)	20 nM	382 nM	4.8 nM
C[C@H](N)C(=O)NCC(=O)N[C@H]1CSSC[C@@H](C(=O)O)NC(=O)[C@H](CO)NC(=O)[C@H]([C@@H](C)O)NC(=O)[C@H](Cc2ccccc2)NC(=O)[C@H]([C@@H](C)O)NC(=O)[C@H](CCCCN)NC(=O)[C@@H](Cc2c[nH]c3ccccc23)NC(=O)[C@H](Cc2ccccc2)NC(=O)[C@H](Cc2ccccc2)NC(=O)[C@H](CC(N)=O)NC(=O)[C@H](CCCCN)NC1=O [SRIF-D-Trp8]			0.005 nM
CC(C)[C@H](NC(=O)[C@H](CCCCN)NC(=O)[C@@H](Cc1c[nH]c2ccccc12)NC(=O)[C@H](Cc1ccc(O)cc1)NC(=O)[C@H](C)NC(=O)[C@H](N)Cc1ccc2ccccc2c1)C(=O)N[C@@H](C)C(=O)N[C@H](C(N)=O)[C@@H](C)O [D-Nal-Ala-Tyr-D-Trp-Lys-Val-Ala-Thr-NH2] (H-[d2Nal]AY[dW]KVAT-NH2)	10 nM	1000 nM	86 nM
CC(C)[C@@H]1NC(=O)[C@H](CCCCN)NC(=O)[C@@H](Cc2c[nH]c3ccccc23)NC(=O)[C@H](Cc2ccc(O)cc2)NC(=O)[C@H](C)N(C)C(=O)[C@H](Cc2ccccc2)NC1=O [CAS_3086456]	12 nM		0.18 nM
